We go through seven molecules from patent EP0033825A2, “2-Cyano-vinyl-(thiono)(thiol)-phosphoric or phosphonic acid derivatives as endoparasiticidal agents” (priority 1980, dated 1981).

Read-outs that look alike come from different tables or passages of the source.

The subject of test [1] is gegen Benzimidazol-Anthelmintika resistenten Haemonchus contortus. Nature of the test: Haemonchus contortus/sheep test, benzimidazole-resistant strain (faecal egg count before and after oral treatment). The class given is in vivo. The following applies: read-out: Dosis effectiva minima (Red. ≥90 %) resistenter Stamm. The text has this:
(§1) Haemonchus contortus/Schaf
(§2) Experimentell mit normal empfindlichen bzw. mit gegen Benzimidazol-Anthelmintika resistenten Haemonchus contortus infizierte Schafe wurden nach Ablauf der Präpatenzzeit des Parasiten behandelt. Die Wirkstoffe wurde als reiner Wirkstoff in Gelatinekapseln oral appliziert.
(§3) Der Wirkungsgrad wird dadurch bestimmt, daß man die mit dem Kot ausgeschiedenen Wurmeier vor und nach der Behandlung quantitativ auszählt.
(§4) Ein völliges Sistieren der Eiausscheidung nach der Behandlung bedeutet, daß die Würmer abgetrieben wurden oder so geschädigt sind, daß sie keine Eier mehr produzieren (Dosis effectiva).
(§5) Geprüfte Wirkstoffe und wirksame Dosierungen (Dosis effectiva minima) sind aus der nachfolgenden Tabelle ersichtlich: […]

The test system of test [2] is normal empfindlichen Haemonchus contortus. Nature of the test: Haemonchus contortus/sheep test, normally sensitive strain (faecal egg count before and after oral treatment). The class given is in vivo. The following applies: Schaf, pure active substance in gelatine capsules, treated after prepatent period, reduction of worm egg excretion ≥90 %, read-out: Dosis effectiva minima (Red. ≥90 %) normal empfind-licher Stamm.
Description: as §1, §2, §3, §4, §5

The mark [3] stands for this setting: Schaf, oral, pure active substance in gelatine capsules, treated after prepatent period, reduction of worm egg excretion ≥90 %, benzimidazole-resistant strain.

On to `CCOP(=S)(OCC)OC(=CC#N)c1cccc(C)c1` [Verbindung Nr. 12], for which the minimal effective dose in test [1] (setting [3]) and in test [2] was 1 mg/kg throughout.

With `CCCOP(=S)(OCC)OC(=CC#N)c1ccccc1C` (centres unmarked) [Verbindung Nr. 89], the minimal effective dose in test [1] (setting [3]) and in test [2] was 2.5 mg/kg each time.

For the molecule `c1ccc2[nH]c(-c3cscn3)nc2c1` [Thiabendazol, 2-(4-Thiazolyl)-benzimidazel], the minimal effective dose was 250 mg/kg in test [1] (po) and 25 mg/kg in test [2].

For `CCCSc1ccc2nc(NC(=O)OC)[nH]c2c1` [Albendazol, Methyl-(5-prepylthio-benzimidazol-2-yl)-carbamat], the minimal effective dose in test [1] (po) was 5 mg/kg; in test [2], 0.5 mg/kg.

As to `COC(=O)Nc1nc2ccc(Sc3ccccc3)cc2[nH]1` [Fenbendazol, Methyl-(5-phenyl-thie-benzimidazol-2-yl)-carbamat], the results for the minimal effective dose in test [1] (po) and in test [2] were 2.5 mg/kg and 0.5 mg/kg, respectively.

Consider `CCOP(=S)(OCC)OC(=CC#N)c1ccccc1Br` [Verbindung Nr. 46], for which the minimal effective dose in test [1] (setting [3]) and in test [2] was 1 mg/kg each time.

With `CCCCc1ccc2[nH]c(NC(=O)OC)nc2c1` [Parbendazol, 5-N-Butyl-2-methoxycarbonylaminobenzimidazol], the minimal effective dose in test [1] (po) was determined as 10 mg/kg; in test [2], 1 mg/kg.
